Laboratory results reported in patent US8946413B2 (Pfizer Inc., priority 2008, dated 2015).

biological target: T1, CCR2 (Homo sapiens, UniProt P41597); assay: hCCR2 (125-I hMCP-1) small molecule binding assay on human PBMCs; conditions: 300 nM, 1 hr preincubation, human PBMCs; read-out: % @300 nM (printed in column IC50 1 hr preinc)
T1 construct: (leukophoresis pack); host or cells: human peripheral blood mononuclear cells (PBMCs) from a normal human leukophoresis pack
Method in brief: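 Ficoll-isolated human PBMCs pre-incubated 30 min or 1 h with compound at 0.333 μM final (0.67% DMSO), then incubated 30 min at room temperature with 150 pM 125I-hMCP-1 in RPMI/0.1% BSA/20 mM HEPES. Filter-bound radioactivity counted by gamma counter. 100% inhibition defined with 1 μM hMCP-1; IC50 plates run n=2.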

T1 sequence (P41597 whole entry): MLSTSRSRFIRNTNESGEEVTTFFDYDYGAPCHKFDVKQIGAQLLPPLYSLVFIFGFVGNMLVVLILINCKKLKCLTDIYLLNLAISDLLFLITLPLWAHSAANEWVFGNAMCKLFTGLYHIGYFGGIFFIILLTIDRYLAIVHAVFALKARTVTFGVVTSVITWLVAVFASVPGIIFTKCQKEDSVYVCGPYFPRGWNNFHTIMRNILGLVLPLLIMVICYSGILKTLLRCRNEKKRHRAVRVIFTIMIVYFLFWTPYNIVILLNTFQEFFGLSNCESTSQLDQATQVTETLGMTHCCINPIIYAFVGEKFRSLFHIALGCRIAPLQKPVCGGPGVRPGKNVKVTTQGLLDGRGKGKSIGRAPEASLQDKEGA

| inhibition at 0.3 µM [%] | SMILES |
| --- | --- |
| 1.5 | CO[C@@H]1COCC[C@@H]1N[C@@H]1CC[C@H](C(=O)N2C[C@@H]3C[C@H]2CN3c2cc(C(F)(F)F)ccn2)C1 [Example 65, ((1S,3R)-3-((3S,4S)-3-methoxy-tetrahydro-2H-pyran-4-ylamino)cyclopentyl)((1S,4S)-5-(4-(trifluoromethyl)pyridin-2-yl)-2,5-diaza-bicyclo[2.2.1]heptan-2-yl)methanone] |

same assay, conditions: 125I-MCP-1, human PBMCs, 30 min preincubation; read-out: IC50 (nM) 30 min preinc

| IC50 [nM] | SMILES |
| --- | --- |
| 35.8 | CO[C@@H]1COCC[C@@H]1N[C@@H]1CC[C@@](C(=O)N2C[C@@H]3C[C@H]2CN3c2cc(C(F)(F)F)ncn2)(C2(O)CCC2)C1 [Example 49, 1,5-anhydro-2,3-dideoxy-3-{[(1R,3S)-3-(1-hydroxycyclobutyl)-3-({(1S,4S)-5-[6-(trifluoromethyl)pyrimidin-4-yl]-2,5-diazabicyclo[2.2.1]hept-2-yl}carbonyl)cyclopentyl]amino}-4-O-methyl-D-erythro-pentitol] |
| 7.14 | CO[C@@H]1COCC[C@@H]1N[C@@H]1CC[C@@](C(=O)N2C[C@@H]3C[C@H]2CN3c2cncc(C(F)(F)F)n2)(C2(O)CCC2)C1 [Example 50, 1,5-anhydro-2,3-dideoxy-3-{[(1R,3S)-3-(1-hydroxycyclobutyl)-3-({(1S,4S)-5-[6-(trifluoromethyl)pyrazin-2-yl]-2,5-diazabicyclo[2.2.1]hept-2-yl}carbonyl)cyclopentyl]amino}-4-O-methyl-D-erythro-pentitol] |
| 22.8 | CO[C@@H]1COCC[C@@H]1N[C@@H]1CC[C@@](C(=O)N2C[C@@H]3C[C@H]2CN3c2ccnc(C(F)(F)F)c2)(C2(O)CCC2)C1 [Example 51, 1,5-anhydro-2,3-dideoxy-3-{[(1R,3S)-3-(1-hydroxycyclobutyl)-3-({(1S,4S)-5-[2-(trifluoromethyl)pyridin-4-yl]-2,5-diazabicyclo[2.2.1]hept-2-yl}carbonyl)cyclopentyl]amino}-4-O-methyl-D-erythro-pentitol] |
| 8.46 | CO[C@@H]1COCC[C@@H]1N[C@@H]1CC[C@@](C(=O)N2C[C@@H]3C[C@H]2CN3c2nccc(C(F)(F)F)n2)(C(C)(C)O)C1 [Example 54] |
| 28.3 | CO[C@@H]1COCC[C@@H]1N[C@@H]1CC[C@@](C(=O)N2C[C@@H]3C[C@H]2CN3c2cc(C(F)(F)F)cnn2)(C(C)(C)O)C1 [Example 55, 1,5-anhydro-2,3-dideoxy-3-{[3-(1-hydroxy-1-methylethyl)-3-({5-[5-(trifluoromethyl)pyridazin-3-yl]-2,5-diazabicyclo[2.2.1]hept-2-yl}carbonyl)cyclopentyl]amino}-4-O-methylpentitol] |
| 32.8 | CO[C@@H]1COCC[C@@H]1N[C@@H]1CC[C@@](C(=O)N2C[C@@H]3C[C@H]2CN3c2ccnc(C(F)(F)F)n2)(C(C)(C)O)C1 [Example 56, 1,5-anhydro-2,3-dideoxy-3-{[3-(1-hydroxy-1-methylethyl)-3-({5-[2-(trifluoromethyl)pyrimidin-4-yl]-2,5-diazabicyclo[2.2.1]hept-2-yl}carbonyl)cyclopentyl]amino}-4-O-methylpentitol] |
| 38.5 | CO[C@@H]1COCC[C@@H]1N[C@@H]1CC[C@@](C(=O)N2C[C@@H]3C[C@H]2CN3c2ccnc(C(F)(F)F)c2)(C(C)(C)O)C1 [Example 58, 1,5-anhydro-2,3-dideoxy-3-{[3-(1-hydroxy-1-methylethyl)-3-({5-[2-(trifluoromethyl)pyridin-4-yl]-2,5-diazabicyclo[2.2.1]hept-2-yl}carbonyl)cyclopentyl]amino}-4-O-methylpentitol] |
| 1.3 | CO[C@@H]1COCC[C@@H]1N[C@@H]1CC[C@@](C(=O)N2C[C@@H]3C[C@H]2CN3c2cc(C(F)(F)F)ccn2)(C(O)C(F)(F)F)C1 (stereo partly drawn) [Example 62, ((1S,3R)-3-((3S,4S)-3-methoxy-tetrahydro-2H-pyran-4-ylamino)-1-(2,2,2-trifluoro-1-hydroxyethyl)cyclopentyl)((1S,4S)-5-(4-(trifluoromethyl)pyridin-2-yl)-2,5-diaza-bicyclo[2.2.1]heptan-2-yl)methanone] |
| 1.7 | CO[C@@H]1COCC[C@@H]1N[C@@H]1CC[C@@](C(=O)N2C[C@@H]3C[C@H]2CN3c2cc(F)cc(C(F)(F)F)c2)(C2CCOC2)C1 (stereo partly shown) [Example 66] |

More lines, now with the values behind:

| SMILES | IC50 [nM] |
| --- | --- |
| CO[C@@H]1COCC[C@@H]1N[C@@H]1CC[C@@](C(=O)N2C[C@@H]3C[C@H]2CN3c2ccnc(C(F)(F)F)n2)(C2(O)CCC2)C1 [Example 48, 1,5-anhydro-2,3-dideoxy-3-{[(1R,3S)-3-(1-hydroxycyclobutyl)-3-({(1S,4S)-5-[2-(trifluoromethyl)pyrimidin-4-yl]-2,5-diazabicyclo[2.2.1]hept-2-yl}carbonyl)cyclopentyl]amino}-4-O-methyl-D-erythro-pentitol] | 25.3 |
| CO[C@@H]1COCC[C@@H]1N[C@@H]1CC[C@@](C(=O)N2C[C@@H]3C[C@H]2CN3c2cc(C(F)(F)F)ccn2)(C(C)(C)O)C1 [Example 52, 1,5-anhydro-2,3-dideoxy-3-{[3-(1-hydroxy-1-methylethyl)-3-({5-[4-(trifluoromethyl)pyridin-2-yl]-2,5-diazabicyclo[2.2.1]hept-2-yl}carbonyl)cyclopentyl]amino}-4-O-methylpentitol] | 5.4 |
| CO[C@@H]1COCC[C@@H]1N[C@@H]1CC[C@@](C(=O)N2C[C@@H]3C[C@H]2CN3c2cc(C(F)(F)F)ncn2)(C(C)(C)O)C1 [Example 53, 1,5-anhydro-2,3-dideoxy-3-{[3-(1-hydroxy-1-methylethyl)-3-({5-[6-(trifluoromethyl)pyrimidin-4-yl]-2,5-diazabicyclo[2.2.1]hept-2-yl}carbonyl)cyclopentyl]amino}-4-O-methylpentitol] | 27.6 |
| CO[C@@H]1COCC[C@@H]1N[C@@H]1CC[C@@](C(=O)N2C[C@@H]3C[C@H]2CN3c2cccc(C(F)(F)F)n2)(C(C)(C)O)C1 [Example 57, 1,5-anhydro-2,3-dideoxy-3-{[3-(1-hydroxy-1-methylethyl)-3-({5-[6-(trifluoromethyl)pyridin-2-yl]-2,5-diazabicyclo[2.2.1]hept-2-yl}carbonyl)cyclopentyl]amino}-4-O-methylpentitol] | 4.34 |
| CO[C@@H]1COCC[C@@H]1N[C@@H]1CC[C@@](C(=O)N2C[C@@H]3C[C@H]2CN3c2cncc(C(F)(F)F)n2)(C(C)(C)O)C1 [Example 59, 1,5-anhydro-2,3-dideoxy-3-{[3-(1-hydroxy-1-methylethyl)-3-({5-[6-(trifluoromethyl)pyrazin-2-yl]-2,5-diazabicyclo[2.2.1]hept-2-yl}carbonyl)cyclopentyl]amino}-4-O-methylpentitol] | 17.7 |
| CO[C@@H]1COCC[C@@H]1N[C@@H]1CC[C@@](C(=O)N2C[C@@H]3C[C@H]2CN3c2cc(C(F)(F)F)ccn2)(C2CCOC2)C1 (stereo partly drawn) [Example 60, ((1S,3R)-3-((3S,4S)-3-methoxy-tetrahydro-2H-pyran-4-ylamino)-1-(tetrahydrofuran-3-yl)cyclopentyl)((1S,4S)-5-(4-(trifluoromethyl)pyridin-2-yl)-2,5-diaza-bicyclo[2.2.1]heptan-2-yl)methanone] | 2.4 |
| CO[C@@H]1COCC[C@@H]1N[C@@H]1CC[C@@](C(=O)N2C[C@@H]3C[C@H]2CN3c2cc(C(F)(F)F)ccn2)(C2CCOC2)C1 (stereo partly drawn) [Example 61, ((1S,3R)-3-((3S,4S)-3-methoxy-tetrahydro-2H-pyran-4-ylamino)-1-(tetrahydrofuran-3-yl)cyclopentyl)((1S,4S)-5-(4-(trifluoromethyl)pyridin-2-yl)-2,5-diaza-bicyclo[2.2.1]heptan-2-yl)methanone] | 5.9 |
| CO[C@@H]1COCC[C@@H]1N[C@@H]1CC[C@@](C(=O)N2C[C@@H]3[C@H](F)[C@H]2CN3c2cc(C(F)(F)F)ccn2)(C(C)C)C1 [Example 67, ((1R,4R,7S)-7-(fluoro)-5-(4-(trifluoromethyl)pyridin-2-yl)-2,5-diaza-bicyclo[2.2.1]heptan-2-yl)((1S,3R)-1-isopropyl-3-((3S,4S)-3-methoxy-tetrahydro-2H-pyran-4-ylamino)cyclopentyl)methanone] | 3.4 |
| CO[C@@H]1COCC[C@@H]1N[C@@H]1CC[C@@](C(=O)N2C[C@@H]3[C@H](O)[C@H]2CN3c2cc(C(F)(F)F)ccn2)(C(C)C)C1 [Example 68, ((1R,4R,7S)-7-hydroxy-5-(4-(trifluoromethyl)pyridin-2-yl)-2,5-diaza-bicyclo[2.2.1]heptan-2-yl)((1S,3R)-1-isopropyl-3-((3S,4S)-3-methoxy-tetrahydro-2H-pyran-4-ylamino)cyclopentyl)methanone] | 5.4 |
| CO[C@@H]1COCC[C@@H]1N[C@@H]1CC[C@@](C(=O)N2C[C@@H]3C(F)[C@H]2CN3c2cc(C(F)(F)F)ccn2)(C(C)C)C1 (stereo partly drawn) [Example 69, ((1R,4R)-7-fluoro-5-(4-(trifluoromethyl)pyridin-2-yl)-2,5-diaza-bicyclo[2.2.1]heptan-2-yl)((1S,3R)-1-isopropyl-3-((3S,4S)-3-methoxy-tetrahydro-2H-pyran-4-ylamino)cyclopentyl)methanone] | 4.3 |
| CO[C@@H]1COCC[C@@H]1N[C@@H]1CC[C@@](C(=O)N2C[C@@H]3C(O)[C@H]2CN3C(=O)OC(C)(C)C)(C(C)C)C1 (stereo partly drawn) [Example 70, (1R,4R,7S)-tert-butyl 7-hydroxy-5-((1S)-1-isopropyl-3-(3-methoxy-tetrahydro-2H-pryan-4-ylamino)cyclopentanecarbonyl)-2,5-diaza-bicyclo[2.2.1]heptane-2-carboxylate] | 8.7 |

same assay, conditions: 125I-MCP-1, human PBMCs, 1 hr preincubation; read-out: IC50 (nM) 1 hr preinc

| IC50 [nM] | SMILES |
| --- | --- |
| 1.1 | CO[C@@H]1COCC[C@@H]1N[C@@H]1CC[C@@](C(=O)N2C[C@@H]3C[C@H]2CN3c2cc(C(F)(F)F)ccn2)(C(O)C(F)(F)F)C1 (stereo partly drawn) [Example 63, ((1S,3R)-3-((3S,4S)-3-methoxy-tetrahydro-2H-pyran-4-ylamino)-1-(2,2,2-trifluoro-1-hydroxyethyl)cyclopentyl)((1S,4S)-5-(4-(trifluoromethyl)pyridin-2-yl)-2,5-diaza-bicyclo[2.2.1]heptan-2-yl)methanone] |
